Reference: patent publication US5149707A, “1-((2-fluorophenyl)(4-fluorophenyl)phenylmethyl)-1H-imidazole useful as antifungal agent” (J. Uriach & Cia, S.A., priority 1988, dated 1992)
Converted amounts (≈) assume the structure as drawn. Where two headings read alike, the source gives them in different places.

Experiments:
T. glabrata (clinica) = assay: In vitro antifungal activity (MIC), agar dilution; assay type: cell-based; details: Nakaseomyces glabratus
Protocol: (§1) The antifungal activity of 1-[(2-fluorophenyl)(4-fluorophenyl)phenylmethyl]-1H-imidazole was shown by its ability to inhibit the growth of different species of yeast and filamentous fungi in vitro. The activity was recorded as the MIC value, that is, the minimum amount of product needed to achieve the complete inhibition of the in vitro growth of the test organism. Testing was performed as follows: a solution of the antifungal agent in ethanol was diluted with DST agar (pH 6.5) or Emmon's Sabouraud dextrose agar to obtain concentrations between 10 and 0.01 mcg/ml, or 80 and 0.16 mcg/m, respectively. The inoculum was standarized in order 1×10^5 cfu/ml, and 10 mcl of each organism was seeded into the agar surface. Incubation was then allowed at 30° C. during 3 days (DST) or 2 days (Emmon's) for yeasts and 10 days for filamentous fungi. Following incubation, the zones of inhibition were measured and compared to an inoculated, drug-free control to yield the MIC value.

Rhodotorula rubra = assay: In vitro antifungal activity (MIC), agar dilution; assay type: cell-based
Protocol: as §1

Aspergillus flavus = assay: In vitro antifungal activity (MIC), agar dilution; assay type: cell-based
Protocol: as §1

Microsporum gypseum = assay: In vitro antifungal activity (MIC), agar dilution; assay type: cell-based; details: Nannizzia gypsea
Protocol: as §1

S. cerevisiae ATCC 9763 = assay: In vitro antifungal activity (MIC), agar dilution; assay type: cell-based; details: Saccharomyces cerevisiae
Protocol: as §1

Microsporum gypseum (-) = assay: In vitro antifungal activity (MIC), agar dilution; assay type: cell-based; details: Nannizzia gypsea
Protocol: as §1

[1] = system: Aspergillus fumigatus (2); assay: In vitro antifungal activity (MIC), agar dilution; assay type: cell-based
Protocol: as §1

C. albicans ATCC 28516 = assay: In vitro antifungal activity (MIC), agar dilution; assay type: cell-based; details: Candida albicans
Protocol: as §1

C. tropicalis SQ 1647 = assay: In vitro antifungal activity (MIC), agar dilution; assay type: cell-based
Protocol: as §1

Aspergillus niger = assay: In vitro antifungal activity (MIC), agar dilution; assay type: cell-based
Protocol: as §1

[2] = system: C. guilliermondii (clinica); assay: In vitro antifungal activity (MIC), agar dilution; assay type: cell-based
Protocol: as §1

[3] = system: T. mentagrophytes (clinica) (1); assay: In vitro antifungal activity (MIC), agar dilution; assay type: cell-based; details: Trichophyton mentagrophytes
Protocol: as §1

Pharmacokinetics = details: in words
mice = details: mouse, in vivo
[4] = Liposolubility (log P octanol-water); assay type: physicochemical
Tolerance (DL50) in mice = details: mouse, in vivo
[5] = system: yeast and filamentous fungi; assay: Comparative antifungal tests of Examples 18 to 20; assay type: cell-based
Protocol: as §1, with “Incubation was then allowed at 30° C. during 3 days (DST) or 2 days (Emmon's) for yeasts and 10 days for filamentous fungi.” left out
The growth inhibition percentage of 5 different isolates on shake cultures was determined 24 h and 48 h after incubation at 28° C. […] The growth inhibition percentage was determined by spectrophotometry (450 nm). […]
The antifungal activity of 1-[(2-fluorophenyl)(4-fluorophenyl)phenylmethyl]-1H-imidazole and bifonazole was determined by serial dilutions in Sabouraud gentamycin broth using microplates. […] MIC's were determined as in example 18. […]

fungi (some species) = assay: Preliminary tests of antifungal activity; assay type: cell-based
[6] = Emmon's Sabouraud dextrose agar
[7] = Emmon's Sabouraud dextrose agar, read-out: MIC

## c1ccc(-c2ccc(C(c3ccccc3)n3ccnc3)cc2)cc1 (stereo not shown) [Bifonazole, 1-[(4-biphenyl)-phenylmethyl]-1H-imidazole, reference compound]
T. glabrata (clinica); DST agar
  MIC: 0.05 mg/L (≈ 0.161 µM)
T. glabrata (clinica); [6]
  MIC: 0.16 mg/L (≈ 0.515 µM)
Rhodotorula rubra; DST agar
  MIC: 0.05 mg/L (≈ 0.161 µM)
Rhodotorula rubra; [6]
  MIC: 0.04 mg/L (≈ 0.129 µM)
Aspergillus flavus; DST agar
  MIC: 10 mg/L (≈ 32.2 µM)
Aspergillus flavus; [6]
  MIC: 80 mg/L (≈ 258 µM)
Microsporum gypseum; DST agar
  MIC: 0.1 mg/L (≈ 0.322 µM)
Microsporum gypseum; [6]
  MIC: 0.63 mg/L (≈ 2.03 µM)
S. cerevisiae ATCC 9763; ATCC9763, DST agar
  MIC: 0.25 mg/L (≈ 0.805 µM)
S. cerevisiae ATCC 9763; ATCC9763, Emmon's Sabouraud dextrose agar
  MIC: 0.63 mg/L (≈ 2.03 µM)
Microsporum gypseum (-); DST agar
  MIC: 2.5 mg/L (≈ 8.05 µM)
Microsporum gypseum (-); [6]
  MIC: 5 mg/L (≈ 16.1 µM)
[1]; DST agar
  MIC: 1 mg/L (≈ 3.22 µM)
[1]; [6]
  MIC: 1.25 mg/L (≈ 4.03 µM)
C. albicans ATCC 28516; ATCC28516, DST agar
  MIC: 2.5 mg/L (≈ 8.05 µM)
C. albicans ATCC 28516; ATCC28516, Emmon's Sabouraud dextrose agar
  MIC: 0.63 mg/L (≈ 2.03 µM)
C. tropicalis SQ 1647; Candida tropicalis, SQ1647
  MIC: 10 mg/L (≈ 32.2 µM)
C. tropicalis SQ 1647; [6]
  MIC: 10.00 mg/L (≈ 32.2 µM)
Aspergillus niger; DST agar
  MIC: 0.1 mg/L (≈ 0.322 µM)
Aspergillus niger; [6]
  MIC: 2.5 mg/L (≈ 8.05 µM)
[2]; Meyerozyma guilliermondii, Emmon's Sabouraud dextrose agar
  MIC: 40 mg/L (≈ 129 µM)
[2]; Meyerozyma guilliermondii, DST agar
  MIC: 10 mg/L (≈ 32.2 µM)
[3]; DST agar
  MIC: 0.5 mg/L (≈ 1.61 µM)
[3]; [6]
  MIC: 5 mg/L (≈ 16.1 µM)

## Fc1ccc(C(c2ccccc2)(c2ccccc2F)n2ccnc2)cc1 (stereo not shown) [UR-4056, 1-[(2-fluorophenyl) (4-fluorophenyl)phenylmethyl]-1H-imidazole]
Pharmacokinetics
  pharmacokinetics: appropiate pharmacokinetics
mice
  tolerance: good tolerance
T. glabrata (clinica); DST agar, read-out: MIC
  MIC: 0.05 mg/L (≈ 0.144 µM)
T. glabrata (clinica); [7]
  MIC: 0.31 mg/L (≈ 0.895 µM)
Rhodotorula rubra; DST agar
  MIC: 0.1 mg/L (≈ 0.289 µM)
Rhodotorula rubra; [6]
  MIC: 0.08 mg/L (≈ 0.231 µM)
Aspergillus flavus; DST agar
  MIC: 1 mg/L (≈ 2.89 µM)
Aspergillus flavus; [6]
  MIC: 2.5 mg/L (≈ 7.22 µM)
Microsporum gypseum; DST agar
  MIC: 0.5 mg/L (≈ 1.44 µM)
Microsporum gypseum; [6]
  MIC: 1.25 mg/L (≈ 3.61 µM)
S. cerevisiae ATCC 9763; ATCC9763, DST agar, read-out: MIC
  MIC: 0.1 mg/L (≈ 0.289 µM)
S. cerevisiae ATCC 9763; ATCC9763, Emmon's Sabouraud dextrose agar, read-out: MIC
  MIC: 0.31 mg/L (≈ 0.895 µM)
Microsporum gypseum (-); DST agar
  MIC: 0.1 mg/L (≈ 0.289 µM)
Microsporum gypseum (-); [6]
  MIC: 0.63 mg/L (≈ 1.82 µM)
[1]; DST agar, read-out: MIC
  MIC: 0.5 mg/L (≈ 1.44 µM)
[1]; [7]
  MIC: 1.25 mg/L (≈ 3.61 µM)
C. albicans ATCC 28516; ATCC28516, DST agar, read-out: MIC
  MIC: 0.5 mg/L (≈ 1.44 µM)
C. albicans ATCC 28516; ATCC28516, Emmon's Sabouraud dextrose agar, read-out: MIC
  MIC: 0.04 mg/L (≈ 0.115 µM)
C. tropicalis SQ 1647; Candida tropicalis, SQ1647, DST agar, read-out: MIC
  MIC: 1 mg/L (≈ 2.89 µM)
C. tropicalis SQ 1647; Candida tropicalis, SQ1647, Emmon's Sabouraud dextrose agar, read-out: MIC
  MIC: 0.63 mg/L (≈ 1.82 µM)
Aspergillus niger; DST agar
  MIC: 0.25 mg/L (≈ 0.722 µM)
Aspergillus niger; [6]
  MIC: 2.5 mg/L (≈ 7.22 µM)
[2]; [6]
  MIC: 5.00 mg/L (≈ 14.4 µM)
[2]; Meyerozyma guilliermondii, DST agar, read-out: MIC
  MIC: 5 mg/L (≈ 14.4 µM)
[3]; DST agar, read-out: MIC
  MIC: 0.1 mg/L (≈ 0.289 µM)
[3]; [7]
  MIC: 1.25 mg/L (≈ 3.61 µM)
[4]; in words
  liposolubility: good liposolubility
[4]; octanol-water
  logP: 3.09
Tolerance (DL50) in mice
  LD50: 691 mg/kg
[5]
  potency compared with bifonazole: more potent than bifonazole in many instances
Fungi (some species)
  antifungal activity: very good activity against some species
